Measurements taken from PMC9516332 (Frontiers in Oncology, 2022).
Where two headings read alike, the source gives them in different places.

Key:
Experiment in all cases: Kinase panel profiling at 1 µmol/L (MSA or IMAP), percentage inhibition
Assay type in all cases: biochemical
[1] = molecular target: T1, panel of 255 wild-type kinases (Homo sapiens, UniProt O60285); details: read-out: %-inhibition, NuaK1
T1 sequence (O60285 1-661): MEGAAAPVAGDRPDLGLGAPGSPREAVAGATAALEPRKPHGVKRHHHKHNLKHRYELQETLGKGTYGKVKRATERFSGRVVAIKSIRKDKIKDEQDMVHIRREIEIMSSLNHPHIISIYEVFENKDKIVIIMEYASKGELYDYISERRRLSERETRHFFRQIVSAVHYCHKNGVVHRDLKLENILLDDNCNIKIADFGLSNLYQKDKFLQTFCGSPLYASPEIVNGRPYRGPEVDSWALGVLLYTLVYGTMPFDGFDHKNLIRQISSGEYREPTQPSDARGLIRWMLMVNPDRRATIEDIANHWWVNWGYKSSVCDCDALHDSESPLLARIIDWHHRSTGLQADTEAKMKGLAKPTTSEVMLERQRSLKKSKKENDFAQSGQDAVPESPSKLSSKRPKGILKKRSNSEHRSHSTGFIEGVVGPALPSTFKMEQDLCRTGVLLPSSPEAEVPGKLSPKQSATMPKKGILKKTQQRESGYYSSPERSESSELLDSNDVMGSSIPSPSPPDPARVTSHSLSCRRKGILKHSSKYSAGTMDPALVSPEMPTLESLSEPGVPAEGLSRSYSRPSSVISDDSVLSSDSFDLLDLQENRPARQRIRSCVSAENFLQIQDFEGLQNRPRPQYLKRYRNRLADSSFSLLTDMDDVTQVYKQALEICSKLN

[2] = molecular target: panel of 255 wild-type kinases (Homo sapiens, UniProt Q13627); details: read-out: %-inhibition at 1 µmol/L, DYRK1A
[3] = molecular target: panel of 255 wild-type kinases (Homo sapiens, UniProt O75116); details: read-out: %-inhibition at 1 µmol/L, ROCK2
[4] = molecular target: panel of 255 wild-type kinases (Homo sapiens, UniProt Q13164); details: read-out: %-inhibition at 1 µmol/L, Erk5
[5] = molecular target: T2, panel of 255 wild-type kinases (Homo sapiens, UniProt O14757); details: read-out: %-inhibition CHK1
T2 sequence (O14757 1-476): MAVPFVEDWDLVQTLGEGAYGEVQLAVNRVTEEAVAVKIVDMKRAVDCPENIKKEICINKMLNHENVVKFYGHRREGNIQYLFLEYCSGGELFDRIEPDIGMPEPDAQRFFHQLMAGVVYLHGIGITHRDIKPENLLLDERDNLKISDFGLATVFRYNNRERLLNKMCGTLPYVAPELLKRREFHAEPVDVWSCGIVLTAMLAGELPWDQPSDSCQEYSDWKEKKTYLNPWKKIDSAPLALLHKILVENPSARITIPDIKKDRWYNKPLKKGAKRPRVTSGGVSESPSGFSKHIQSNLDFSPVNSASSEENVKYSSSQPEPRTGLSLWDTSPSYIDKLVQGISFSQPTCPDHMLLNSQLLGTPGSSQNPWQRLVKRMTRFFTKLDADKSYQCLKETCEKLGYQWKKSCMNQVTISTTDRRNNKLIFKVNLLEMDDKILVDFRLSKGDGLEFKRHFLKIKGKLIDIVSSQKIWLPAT

[6] = molecular target: panel of 255 wild-type kinases (Homo sapiens, UniProt P00519); details: read-out: %-inhibition ABL
[7] = molecular target: panel of 255 wild-type kinases (Homo sapiens, UniProt Q05397); details: read-out: %-inhibition at 1 µmol/L, FAK
[8] = molecular target: panel of 255 wild-type kinases (Homo sapiens, UniProt Q9BUB5); details: read-out: %-inhibition, MNK1
[9] = molecular target: panel of 255 wild-type kinases (Homo sapiens, UniProt Q9UKE5); details: read-out: %-inhibition at 1 µmol/L, TNIK
[10] = molecular target: T3, panel of 255 wild-type kinases (Homo sapiens, UniProt O14920); details: read-out: %-inhibition at 1 µmol/L, IKKβ
T3 sequence (O14920 1-756): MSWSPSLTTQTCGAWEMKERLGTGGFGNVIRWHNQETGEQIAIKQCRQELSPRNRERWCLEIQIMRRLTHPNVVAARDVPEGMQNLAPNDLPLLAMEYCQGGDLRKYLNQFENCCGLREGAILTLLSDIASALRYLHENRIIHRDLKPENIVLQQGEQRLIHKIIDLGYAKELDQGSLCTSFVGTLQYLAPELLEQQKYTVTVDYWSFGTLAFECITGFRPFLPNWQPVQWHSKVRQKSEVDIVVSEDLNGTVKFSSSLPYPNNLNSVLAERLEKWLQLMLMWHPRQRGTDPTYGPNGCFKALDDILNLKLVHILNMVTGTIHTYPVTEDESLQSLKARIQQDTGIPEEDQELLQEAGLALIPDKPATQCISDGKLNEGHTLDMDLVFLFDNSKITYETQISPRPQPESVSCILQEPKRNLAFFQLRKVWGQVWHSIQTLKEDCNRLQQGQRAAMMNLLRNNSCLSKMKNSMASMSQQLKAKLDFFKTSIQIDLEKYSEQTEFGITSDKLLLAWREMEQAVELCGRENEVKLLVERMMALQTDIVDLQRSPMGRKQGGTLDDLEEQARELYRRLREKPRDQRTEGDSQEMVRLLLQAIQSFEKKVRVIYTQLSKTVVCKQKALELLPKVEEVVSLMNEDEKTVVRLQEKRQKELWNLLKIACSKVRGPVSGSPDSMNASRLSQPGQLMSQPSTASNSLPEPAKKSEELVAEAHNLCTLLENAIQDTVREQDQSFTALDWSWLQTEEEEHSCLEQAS

[11] = molecular target: panel of 255 wild-type kinases (Homo sapiens, UniProt P07333); details: read-out: %-inhibition at 1 µmol/L, FMS
[12] = NuaK1, 1 µmol/L single concentration
[13] = kinase DYRK1A, 1 µmol/L single concentration
[14] = kinase ROCK2, 1 µmol/L single concentration
[15] = kinase Erk5, 1 µmol/L single concentration
[16] = CHK1 kinase assay, 1 µmol/L single concentration
[17] = ABL kinase assay, 1 µmol/L single concentration
[18] = kinase FAK, 1 µmol/L single concentration
[19] = MNK1, 1 µmol/L single concentration
[20] = kinase TNIK, 1 µmol/L single concentration
[21] = kinase IKKβ, 1 µmol/L single concentration
[22] = kinase FMS, 1 µmol/L single concentration

Row | inhibition at 1 µM [7, 18] [%] | SMILES | inhibition at 1 µM [1, 12] [%] | inhibition at 1 µM [2, 13] [%] | inhibition at 1 µM [3, 14] [%] | inhibition at 1 µM [4, 15] [%] | inhibition at 1 µM [5, 16] [%] | inhibition at 1 µM [6, 17] [%] | inhibition at 1 µM [8, 19] [%] | inhibition at 1 µM [9, 20] [%] | inhibition at 1 µM [10, 21] [%] | inhibition at 1 µM [11, 22] [%] | other results
1 | -1.9 | Cn1cnc2c(F)c(Nc3ccc(Br)cc3Cl)c(C(=O)NOCCO)cc21 [selumetinib] | 6 | -3.48 | 2.83 | 2.36 | 2.73 | -6.58 | -6.56 | 2.3 | 1.34 | 8.51 | 
2 | 10 | COc1ccc(CN2C3CC2CN(c2ccc(-c4cc(OCC(C)(C)O)cn5ncc(C#N)c45)cn2)C3)cn1 [selpercatinib] | 10 | 6 | -0.275 | 4 | 29 | 16 | 42 | 6 | -2.15 | 79 | 
3 | 4 | O=C(Nc1cnn2ccc(N3CCC[C@@H]3c3cc(F)ccc3F)nc12)N1CC[C@H](O)C1 [larotrectinib] | 13 | -4.7 | -3.33 | 1.26 | 14 | -7 | -5.37 | 1.8 | -1.76 | -4.31 | 
4 |  | CNC(=O)c1ccc(-c2cnc3ncc(Cc4ccc5ncccc5c4)n3n2)cc1F [capmatinib] |  |  |  |  |  |  |  |  |  |  | inhibition at 1 µM [1]: -1.53%; inhibition at 1 µM [2]: -0.902%; inhibition at 1 µM [3]: -0.288%; inhibition at 1 µM [4]: -3%; inhibition at 1 µM [5]: 0.209%; inhibition at 1 µM [6]: -1.84%; inhibition at 1 µM [7]: -6%; inhibition at 1 µM [8]: -1%; inhibition at 1 µM [9]: 1.68%; inhibition at 1 µM [10]: -0.588%; inhibition at 1 µM [11]: 13%
5 | 4 | C[C@H](Nc1ncnc2nc[nH]c12)c1cc2cccc(Cl)c2c(=O)n1-c1ccccc1 [duvelisib] | 0.44 | -3.48 | -0.18 | -0.634 | 5.69 | -2 | 0.446 | 5 | 0.466 | 2.22 | 
6 |  | C[C@H]1Oc2cc(cnc2N)-c2c(nn(C)c2C#N)CN(C)C(=O)c2ccc(F)cc21 [lorlatinib] | 26 | -4.39 | 3.28 | 38 | 12 | -2.34 | 6 | 7 | -0.377 | 32 | 
7 |  | CN1CCN(c2ccc(C(=O)Nc3n[nH]c4ccc(Cc5cc(F)cc(F)c5)cc34)c(NC3CCOCC3)c2)CC1 [entrectinib] | 102 | -3.18 | 7 | 13 | 14 | 77 | -1 | 20 | -0.451 | 86 | 
8 | -0.575 | COc1cc2ncnc(Nc3ccc(F)c(Cl)c3)c2cc1NC(=O)/C=C/CN1CCCCC1 [dacomitinib] | 11 | 9 | -4.35 | 0.172 | 10 |  | 91 | 27 | 6 | 8.55 | 

Row | SMILES | inhibition at 1 µM [7, 18] [%] | inhibition at 1 µM [1, 12] [%] | inhibition at 1 µM [2, 13] [%] | inhibition at 1 µM [3, 14] [%] | inhibition at 1 µM [4, 15] [%] | inhibition at 1 µM [5, 16] [%] | inhibition at 1 µM [6, 17] [%] | inhibition at 1 µM [8, 19] [%] | inhibition at 1 µM [9, 20] [%] | inhibition at 1 µM [10, 21] [%] | inhibition at 1 µM [11, 22] [%] | other results
9 | CCN1C(=O)N(c2c(F)c(OC)cc(OC)c2F)Cc2cnc3[nH]c(CN4CCOCC4)cc3c21 [pemigatinib] | 5.32 | -2.15 | -2.67 | -5 | 97 | 12 | 10 | -4.63 | 4 | -1.22 | 93 | 
10 | FC(F)(F)c1ccc(CNc2ccc(Cc3c[nH]c4ncc(Cl)cc34)cn2)cn1 [pexidartinib] | 30 | 8 | 8 | 0.233 | 10 | 5.6 | 0.064 | 61 | 20 | 5 | 95 | 
11 | CCN1CCN(c2ccc(Nc3cc(N(C)C(=O)Nc4c(Cl)c(OC)cc(OC)c4Cl)ncn3)cc2)CC1 [infigratinib] | -4.48 | 8 | -4 | -0.775 | 30 | -1.07 | 10 | -1.75 |  | 0.304 | 96 | 
12 | Cn1cc(-c2cc3c(N4CCN(c5ncc([C@@](C)(N)c6ccc(F)cc6)cn5)CC4)ncnn3c2)cn1 [avapritinib] | -2.5 | 85 | 57 | 11 | 1.78 | 40 | 57 | 72 | 30 | 0.049 |  | 
